Data published in patent US9192656B2, “Methods and compositions for the treatment of cancer” (QUINTESSENCE BIOSCIENCES, INC., priority 2006, dated 2015).
Numbering of substitutions follows the chain as printed. Names may count otherwise.

What was measured:
[1] = test system: non-small cell lung cancer cell line (A549); assay: In vivo inhibition of tumor growth, A549 xenograft; parameters: species or system human tumor cells in nude mice; conditions: for Starting volume: at start
Experimental: (§1) Cells from a non-small cell lung cancer cell line (A549) were grown in nine T175 flasks in F12K media and 10% fetal calf serum until the cells were confluent. 4.5×10^6 cells (in 100 microliters) were injected into the right rear flank of 4-5 week old male homozygous (nu/nu) nude mice (Harlan, Madison Wis.). Tumors were allowed to grow to an average size of ≧75 mm^3 before treatments were initiated. Animals of each tumor type, with the properly sized tumors, were divided into treatment groups, including one set of animals treated weekly with vehicle (phosphate buffered saline, PBS). The vehicle and the test agents were all administered by intraperitoneal injection. Each animal was weighed twice a week during treatment. The tumors were measured twice weekly using calipers. Tumor volume (mm^3) was determined by using the formula for an ellipsoid sphere:
[formula] The efficacy of wild type human RNase 1 is shown relative to cisplatin. The RNase 1 was administered at 75 mg per kg of body weight of the animal once a week (75 mg/kg 1×wk), while the cisplatin was used at 6 mg/kg once a week. The value of n represents the number of animals in the specific treatment arm of the experiment.
(§2) The percent tumor growth inhibition (% TGI) is calculated by: […]
The xenograft model of this example was set up with the human non-small cell lung cancer cell line (A549) as in the previous examples. The efficacy of wild type human RNase 1 is shown relative to tarceva. The RNase 1 was administered at 75 mg per kg of body weight of the animal (75 mg/kg 1×wk) or 150 mg/kg 1×wk. Tarceva was given orally with doses of 50 mg/kg twice a week. The value of n represents the number of animals in the specific treatment arm of the experiment.

[2] = test system: human pancreatic cancer cell line (B×PC-3); assay: In vivo inhibition of tumor growth, BxPC-3 xenograft; parameters: species or system human tumor cells in nude mice; conditions: Example 5, Table 9, RNase 1 15 mg/kg qd×5, gemcite 60 mg/kg twice a week
Experimental: as §1, with “sphere: […]” for “sphere:”
as §2
(§3) The xenograft model of this example was set up as in the previous example except that a human pancreatic cancer cell line (B×PC-3) was used. The efficacy of wild type human RNase 1 is shown relative to gemcite. The RNase 1 was administered at 15 mg per kg of body weight of the animal five times per week (15 mg/kg qd×5), while the gemcite was used at 60 mg/kg twice a week. The value of n represents the number of animals in the specific treatment arm of the experiment.
as §3, with “shown.” for “shown relative to gemcite.”, “three different doses: (1) 30” for “15”, “once” for “five times”, “(30” for “(15”, “1×wk), (2) 75” for “qd×5), while the gemcite was used at 60”, “1×wk, or (3) 150 mg/kg 1×wk.” for “twice a week.”

[3] = test system: human prostate cancer cell line (DU145); assay: In vivo inhibition of tumor growth, DU145 xenograft; parameters: species or system human tumor cells in nude mice; conditions: Example 4, Table 8, RNase 1 75 mg/kg 1×wk, docetaxel 8 mg/kg once a week
Experimental: as §1, with “sphere: […]” for “sphere:”
as §2
This xenograft model was set up as in the previous example except that a human prostate cancer cell line (DU145) was used. The efficacy of wild type human RNase 1 is shown relative to docetaxel. The RNase 1 was administered at 75 mg per kg of body weight of the animal (75 mg/kg 1×wk), while the docetaxel was used at 8 mg/kg once a week. The value of n represents the number of animals in the specific treatment arm of the experiment.
(§4) The xenograft model of this example was set up as in the previous example except that a human prostate cancer cell line (DU145) was used. The efficacy of wild type human RNase 1 is shown. The RNase 1 was administered at 75 mg per kg of body weight of the animal once per week (75 mg/kg 1×wk). The value of n represents the number of animals in the specific treatment arm of the experiment.
as §4, with “example.” for “example except that a human prostate cancer cell line (DU145) was used.”, “three different doses: (1) 15” for “75”, “(15” for “(75”, “1×wk), (2) 75 mg/kg 1×wk, or (3) 300 mg/kg 1×wk.” for “1×wk).”

[4] = Clinical chemistry and complete blood count plus platelets (DU145 xenograft mice); type: in vivo
Experimental: Clinical chemistry and a complete blood count (CBC) plus platelets were performed on whole blood and serum samples collected from the mice 24 hours after the last treatment of the prostate xenograft model above. […] Creatinine was also tested and found not to differ. The levels of the liver enzymes, gamma glutamyl transferase (GGT) and alanine transaminase (ALT) in all treatment groups were similar (GGT data not shown.). The values were determined for the various treatment groups of the prostate (DU145) xenograft study for clinical chemistry (A., B.), complete blood count (C., D.), and platelets (F.). Abbreviations: TCO2, amount of bicarbonate ion (HCO3^−); Anion Gap, [Na+K]—[Cl+HCO3]; ALT, alanine aminotransferase; WBC, white blood count; RBC, red blood count; HGB, hemoglobin; RBC HGB, (CHCM×RBC×MCV)/1000); MCH, mean corpuscular hemoglobin; MCHC, mean corpuscular hemoglobin concentration; RDW, red cell distribution width; MPV, mean platelet volume; HCT, hematocrit; MCV, mean corpuscular volume.

[5] = test system: non-small cell lung cancer; assay: Xenograft models of non-small cell lung cancer (RNase 1 variants); type: in vivo, mice; conditions: for (Final − start)/Control: relative to vehicle; for Starting volume: tumor volume at start; for tumor growth inhibition (in words): xenograft model of non-small cell lung cancer
Experimental: as §1, with “sphere: […]” for “sphere:”
as §2

[6] = test system: human breast cancer cell line (MDA-MB-231); assay: In vivo inhibition of tumor growth, MDA-MB-231 xenograft; parameters: species or system human tumor cells in nude mice; conditions: Example 10, Table 14, female mice, RNase 1 75 mg/kg 1×wk, doxorubicin 3 mg/kg once per week
Experimental: as §1, with “sphere: […]” for “sphere:”
as §2
The xenograft model of this example was set up as in the previous example except that a human breast cancer cell line (MDA-MB-231) and female mice were used. The efficacy of wild type human RNase 1 is shown relative to doxorubicin. The RNase 1 was administered at 75 mg per kg of body weight of the animal once per week (75 mg/kg 1×wk), while the doxorubicin was given at 3 mg/kg once per week. The value of n represents the number of animals in the specific treatment arm of the experiment.

[7] = Example 6, Table 10, orally 50 mg/kg twice a week
[8] = Example 3, Table 7, i.p., RNase 1 75 mg/kg 1×wk, cisplatin 6 mg/kg once a week

In the case of C#Cc1cccc(Nc2ncnc3cc(OCCOC)c(OCCOC)cc23)c1 [Tarceva, N-(3-ethynylphenyl)-6,7-bis(2-methoxyethoxy)quinazolin-4-amine, reference compound], the “% TGI” value [1, 7] is reported as 77%, the “(Final − start)” value [1, 7] is reported as 181 mm^3 and the “(Final − start)/Control” value [1, 7] is reported as 0.23. It also gave a Final volume [1, 7] of 265 mm^3 and a Starting volume [1, 7] of 84 mm^3.

In the case of Nc1ccn([C@@H]2O[C@H](CO)[C@@H](O)C2(F)F)c(=O)n1 [Gemcite, reference compound], the “% TGI” value [2] is reported as 60%, the “(Final − start)” value [2] is reported as 427 mm^3 and the “(Final − start)/Control” value [2] is reported as 0.40. For the same molecule, the Final volume [2] was 505 mm^3 and the Starting volume ([2]; at start) was 78 mm^3.

With CC(=O)O[C@@]12CO[C@@H]1C[C@H](O)[C@@]1(C)C(=O)[C@H](O)C3=C(C)[C@@H](OC(=O)[C@H](O)[C@@H](NC(=O)OC(C)(C)C)c4ccccc4)C[C@@](O)([C@@H](OC(=O)c4ccccc4)[C@H]21)C3(C)C [Docetaxel, (2R,3S)-N-carboxy-3-phenylisoserine, N-tert-butyl ester, 13-ester with 5b-20-epoxy-12a,4,7b,10b,13a-hexahydroxytax-11-en-9-one 4-acetate 2-benzoate, trihydrate, reference compound] the “% TGI” value [3] was 92%, the “(Final − start)” value [3] was 180 mm^3 and the “(Final − start)/Control” value [3] was 0.08. The Final volume [3] was 249 mm^3, the Starting volume ([3]; at start) was 60 mm^3 and the Creatinine versus vehicle ([4]; 24 hours after the last treatment) was “not to differ”. The “Clinical chemistry and complete blood count plus platelets, all tests, versus vehicle” value ([4]; whole blood and serum 24 hours after the last treatment, Mann-Whitney U test) was “not to be significantly different”.

For N.N.[Cl][Pt][Cl] [cisplatin, Cisplatin, reference compound], the “% TGI” value ([5]; Table 2, FIG. 1) was 68%, the “(Final − start)” value ([5]; Table 2, FIG. 1) was 290 mm^3 and the Final volume ([5]; Table 2, FIG. 1) was 369 mm^3. For the same molecule, the “(Final − start)/Control” value ([5]; Table 2, FIG. 1) was 0.32, the Starting volume ([5]; Table 2, FIG. 1) was 79 mm^3 and the “% TGI” value [1, 8] was 81%. For the same molecule, the “(Final − start)” value [1, 8] was 58 mm^3, the “(Final − start)/Control” value [1, 8] was 0.19 and the Final volume [1, 8] was 130 mm^3. The Starting volume [1, 8] was 72 mm^3.

In the case of COc1cccc2c1C(=O)c1c(O)c3c(c(O)c1C2=O)C[C@@](O)(C(=O)CO)C[C@@H]3O[C@H]1C[C@H](N)[C@H](O)[C@H](C)O1 [doxorubicin, reference compound], the “% TGI” value [6] is reported as 84%, the “(Final − start)” value [6] is reported as 22 mm^3 and the “(Final − start)/Control” value [6] is reported as 0.16. It also gave a Final volume [6] of 86 mm^3 and a Starting volume ([6]; at start) of 64 mm^3.

B1: G38R/R39D/L86E/N88R/G89D/R91D RNase 1: variant of human RNase 1 with substitutions G38R, R39D, L86E, N88R, G89D, R91D (protein)
chain: KESRAKKFQRQHMDSDSSPSSSSTYCNQMMRRRNMTQRDCKPVNTFVHEPLVDVQNVCFQEKVTCKNGQGNCYKSNSSMHITDCRETRDSDYPNCAYRTSPKERHIIVACEGSPYVPVHFDASVEDST
In the case of B1, the “% TGI” value ([5]; Table 2, FIG. 1) is reported as 28%, the “(Final − start)” value ([5]; Table 2, FIG. 1) is reported as 647 mm^3 and the Final volume ([5]; Table 2, FIG. 1) is reported as 723 mm^3. The “(Final − start)/Control” value ([5]; Table 2, FIG. 1) was 0.72, the Starting volume ([5]; Table 2, FIG. 1) was 76 mm^3 and the “tumor growth inhibition (in words)” value [5] was “displayed tumor growth inhibition”.

B2: R4C/G38R/R39D/L86E/N88R/G89D/R91D/V118C RNase 1: variant of human RNase 1 with substitutions R4C, G38R, R39D, L86E, N88R, G89D, R91D, V118C (protein)
chain: B1 chain with R4C, V118C
For B2, the “% TGI” value ([5]; Table 3, FIG. 2) was 48%, the “(Final − start)” value ([5]; Table 3, FIG. 2) was 1022 mm^3 and the Final volume ([5]; Table 3, FIG. 2) was 1130 mm^3. The “(Final − start)/Control” value ([5]; Table 3, FIG. 2) was 0.52, the Starting volume ([5]; Table 3, FIG. 2) was 108 mm^3 and the “tumor growth inhibition (in words)” value [5] was “impacted tumor growth”.

B3: L86E/N88R/G89D/R91D RNase 1: variant of human RNase 1 with substitutions L86E, N88R, G89D, R91D (protein)
chain: B1 chain with R38G, D39R
With B3 the “% TGI” value ([5]; Table 2, FIG. 1) was 40%, the “(Final − start)” value ([5]; Table 2, FIG. 1) was 540 mm^3 and the Final volume ([5]; Table 2, FIG. 1) was 624 mm^3. The “(Final − start)/Control” value ([5]; Table 2, FIG. 1) was 0.60, the Starting volume ([5]; Table 2, FIG. 1) was 84 mm^3 and the “tumor growth inhibition (in words)” value [5] was “displayed tumor growth inhibition”.

B4: R4C/K7A/G38R/R39D/L86E/N88R/G89D/R91D/V118C RNase 1: variant of human RNase 1 with substitutions R4C, K7A, G38R, R39D, L86E, N88R, G89D, R91D, V118C (protein)
chain: B1 chain with R4C, K7A, V118C
For B4, the “% TGI” value ([5]; Table 4, FIG. 3) was 36%, the “(Final − start)” value ([5]; Table 4, FIG. 3) was 478 mm^3 and the Final volume ([5]; Table 4, FIG. 3) was 552 mm^3. The “(Final − start)/Control” value ([5]; Table 4, FIG. 3) was 0.36, the Starting volume ([5]; Table 4, FIG. 3) was 74 mm^3 and the “tumor growth inhibition (in words)” value [5] was “demonstrated measurable tumor growth inhibition”.
